Measured values as given in paper PMC7689791 (Journal of Clinical Pharmacology, 2020).

Test: Observed incidence of treatment-emergent adverse events in clinical studies
Details: studies 202, 303, 304; 5 to 15 mg

SMILES: Cc1ncc(OC[C@@]2(c3cccc(F)c3)C[C@H]2C(=O)Nc2ccc(F)cn2)c(C)n1 [Lemborexant]
- Flu/influenza frequency, active treatment: 4.0%
